Data published in patent US8063071B2 (GlaxoSmithKline, LLC, priority 2007, dated 2011).
Where a name gives a salt, the structure may show the parent alone.

What was measured:
[1] = target: T1, Recombinant human IKKβ (residues 1-737) (Homo sapiens, UniProt O14920); experiment: IKK2 assay (TR-FRET); assay type: biochemical; conditions: ATP 1 μM final, read-out: pIC50 against IKK2 (converted)
T1 construct: Recombinant human IKKβ (residues 1-737); GST (C); made in house
T1 sequence (O14920 1-737): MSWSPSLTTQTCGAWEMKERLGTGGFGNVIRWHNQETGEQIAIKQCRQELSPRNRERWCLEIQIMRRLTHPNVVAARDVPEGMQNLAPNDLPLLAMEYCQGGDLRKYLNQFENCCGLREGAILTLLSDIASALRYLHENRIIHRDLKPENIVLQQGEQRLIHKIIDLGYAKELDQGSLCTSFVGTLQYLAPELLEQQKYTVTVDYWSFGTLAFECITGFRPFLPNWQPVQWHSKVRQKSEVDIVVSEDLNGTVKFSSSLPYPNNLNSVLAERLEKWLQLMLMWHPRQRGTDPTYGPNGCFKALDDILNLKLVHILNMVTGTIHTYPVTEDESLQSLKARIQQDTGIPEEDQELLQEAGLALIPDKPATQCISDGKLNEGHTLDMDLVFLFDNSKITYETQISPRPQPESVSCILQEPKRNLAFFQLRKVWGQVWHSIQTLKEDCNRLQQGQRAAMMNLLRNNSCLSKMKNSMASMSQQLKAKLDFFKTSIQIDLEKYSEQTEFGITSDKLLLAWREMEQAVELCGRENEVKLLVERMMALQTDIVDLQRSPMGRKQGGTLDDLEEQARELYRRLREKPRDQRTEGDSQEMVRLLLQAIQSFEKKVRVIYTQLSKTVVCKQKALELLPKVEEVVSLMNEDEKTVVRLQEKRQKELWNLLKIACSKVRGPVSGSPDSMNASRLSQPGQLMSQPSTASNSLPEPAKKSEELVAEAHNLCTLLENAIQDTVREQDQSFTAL
How it was run: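 TR-FRET readout (665 nm over 620 nm Eu reference) of GST-IB Ser32/36 phosphorylation after 60 min detection. Reaction: 1 μM ATP, 25 nM substrate, 0.5-5 nM GST-fused IKKβ 1-737 from baculovirus, pH 7.4 HEPES buffer, 1.7% DMSO, 15 min room temperature, EDTA-terminated.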

[2] = system: human monocyte stimulated cytokine production (TNF-α); experiment: Monocyte assay (LPS-stimulated TNF-α production); assay type: cell-based; conditions: for IC50: 24 h, 200 ng/mL LPS, TNF-α by ELISA; for inhibition at 0.3 µM: read-out: inhibition at 300 nM in the monocyte assay
How it was run: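 TNF-α release was measured by ELISA after 24 hrs at 37 C. Cells were stimulated with 200 ng/mL E. coli LPS, with compound added 30 minutes beforehand (0.1% DMSO vehicle). Cells were Ficoll/MACS-isolated CD14+ human monocytes adhered at 1×10^6 cells/mL, and viability was checked by trypan blue.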

| IC50 [1] [µM] | IC50 [2] [µM] | Structure (SMILES) | inhibition at 0.3 µM [2] [%] |
| --- | --- | --- | --- |
| ≤ 10 | – | CCS(=O)(=O)N1CCC(c2c[nH]c3c(C(N)=O)cc(-c4cccc(CNCCn5nc(C)cc5C)c4)cc23)CC1 [Example 350, 5-[3-({[2-(3,5-dimethyl-1H-pyrazol-1-yl)ethyl]amino}methyl)phenyl]-3-[1-(ethylsulfonyl)-4-piperidinyl]-1H-indole-7-carboxamide trifluoroacetate] | 0 to 60 |
| ≤ 10 | ≤ 1.5 | CCS(=O)(=O)N1CCC(c2c[nH]c3c(C(N)=O)cc(-c4cccc(CNC(=O)C5CC5)c4)cc23)CC1 [Example 368, 5-(3-{[(cyclopropylcarbonyl)amino]methyl}phenyl)-3-[1-(ethylsulfonyl)-4-piperidinyl]-1H-indole-7-carboxamide] | – |
| ≤ 10 | ≤ 1.5 | CCCNCc1ccc(F)c(-c2cc(C(N)=O)c3[nH]cc(C4CCN(S(=O)(=O)CC)CC4)c3c2)c1 [Example 334, 3-[1-(ethylsulfonyl)-4-piperidinyl]-5-{2-fluoro-5-[(propylamino)methyl]phenyl}-1H-indole-7-carboxamide trifluoroacetate] | – |
| ≤ 10 | ≤ 1.5 | CCS(=O)(=O)N1CCC(c2c[nH]c3c(C(N)=O)cc(-c4csc(CN(C)C5CCC5)c4)cc23)CC1 [Example 404, 5-(5-{[cyclobutyl(methyl)amino]methyl}-3-thienyl)-3-[1-(ethylsulfonyl)-4-piperidinyl]-1H-indole-7-carboxamide trifluoroacetate] | – |
| ≤ 10 | ≤ 1.5 | CCCN(C)C(C)c1cc(-c2cc(C(N)=O)c3[nH]cc(C4CCN(S(=O)(=O)CC)CC4)c3c2)cs1 (stereo not shown) [Example 417, 3-[1-(ethylsulfonyl)-4-piperidinyl]-5-(5-{1-[methyl(propyl)amino]ethyl}-3-thienyl)-1H-indole-7-carboxamide trifluoroacetate] | – |
| ≤ 10 | > 1 | CCS(=O)(=O)N1CCC(c2c[nH]c3c(C(N)=O)cc(-c4ccc(N5CCN(C(C)=O)CC5)nc4)cc23)CC1 [Example 389, 5-[6-(4-acetyl-1-piperazinyl)-3-pyridinyl]-3-[1-(ethylsulfonyl)-4-piperidinyl]-1H-indole-7-carboxamide trifluoroacetate] | – |
| ≤ 10 | ≤ 1.5 | CCS(=O)(=O)N1CCC(c2c[nH]c3c(C(N)=O)cc(-c4cc(C#N)cc(CNCC(C)C)c4)cc23)CC1 [Example 357, 5-(3-cyano-5-{[(2-methylpropyl)amino]methyl}phenyl)-3-[1-(ethylsulfonyl)-4-piperidinyl]-1H-indole-7-carboxamide trifluoroacetate] | – |

Further lines, the compound ahead of its results:

| Structure (SMILES) | IC50 [1] [µM] | IC50 [2] [µM] | inhibition at 0.3 µM [2] [%] |
| --- | --- | --- | --- |
| CCN(C)Cc1cccc(-c2cc(C(N)=O)c3[nH]cc(C4CCN(S(=O)(=O)CC)CC4)c3c2)c1 [Example 13, 5-(3-{[ethyl(methyl)amino]methyl}phenyl)-3-[1-(ethylsulfonyl)-4-piperidinyl]-1H-indole-7-carboxamide] | ≤ 10 | ≤ 1.5 | – |
| CCS(=O)(=O)N1CCC(c2c[nH]c3c(C(N)=O)cc(-c4cc(CNCC(F)(F)F)ccc4F)cc23)CC1 [Example 36, 3-[1-(ethylsulfonyl)-4-piperidinyl]-5-(2-fluoro-5-{[(2,2,2-trifluoroethyl)amino]methyl}phenyl)-1H-indole-7-carboxamide trifluoroacetate] | ≤ 10 | > 1 | – |
| CCS(=O)(=O)N1CCC(c2c[nH]c3c(C(N)=O)cc(-c4cc(F)cc(CNC[C@@H]5CCCO5)c4)cc23)CC1 [Example 312, 3-[1-(ethylsulfonyl)-4-piperidinyl]-5-[3-fluoro-5-({[(2S)-tetrahydro-2-furanylmethyl]amino}methyl)phenyl]-1H-indole-7-carboxamide trifluoroacetate] | ≤ 10 | ≤ 1.5 | – |
| CCS(=O)(=O)N1CCC(c2c[nH]c3c(C(N)=O)cc(-c4csc(CNC[C@@H]5CCCO5)c4)cc23)CC1 [Example 119, 3-[1-(ethylsulfonyl)-4-piperidinyl]-5-[5-({[(2S)-tetrahydro-2-furanylmethyl]amino}methyl)-3-thienyl]-1H-indole-7-carboxamide trifluoroacetate] | ≤ 10 | ≤ 1.5 | – |
| CCS(=O)(=O)N1CCC(c2c[nH]c3c(C(N)=O)cc(-c4csc([C@@H](C)N5CCCC5)c4)cc23)CC1 [Example 213, 3-[1-(ethylsulfonyl)-4-piperidinyl]-5-{5-[(1R)-1-(1-pyrrolidinyl)ethyl]-3-thienyl}-1H-indole-7-carboxamide] | ≤ 10 | ≤ 1.5 | – |
| CCS(=O)(=O)N1CCC(c2c[nH]c3c(C(N)=O)cc(-c4csc(CN[C@@H](C)C(C)C)c4)cc23)CC1 [Example 116, 5-[5-({[(1S)-1,2-dimethylpropyl]amino}methyl)-3-thienyl]-3-[1-(ethylsulfonyl)-4-piperidinyl]-1H-indole-7-carboxamide trifluoroacetate] | ≤ 10 | ≤ 1.5 | – |
| CCCNCc1ccc(-c2cc(C(N)=O)c3[nH]cc(C4CCN(S(=O)(=O)CC)CC4)c3c2)cc1 [Example 141, 3-[1-(ethylsulfonyl)-4-piperidinyl]-5-{4-[(propylamino)methyl]phenyl}-1H-indole-7-carboxamide trifluoroacetate] | ≤ 10 | ≤ 1.5 | – |
| CCCCCN(C)Cc1cc(-c2cc(C(N)=O)c3[nH]cc(C4CCN(S(=O)(=O)CC)CC4)c3c2)cs1 [Example 72, 3-[1-(ethylsulfonyl)-4-piperidinyl]-5-(5-{[methyl(pentyl)amino]methyl}-3-thienyl)-1H-indole-7-carboxamide trifluoroacetate] | ≤ 10 | ≤ 1.5 | – |
| CCS(=O)(=O)N1CCC(c2c[nH]c3c(C(N)=O)cc(-c4ccc(CNC(C)C)s4)cc23)CC1 [Example 169, 3-[1-(ethylsulfonyl)-4-piperidinyl]-5-(5-{[(1-methylethyl)amino]methyl}-2-thienyl)-1H-indole-7-carboxamide] | ≤ 10 | ≤ 1.5 | – |
| CCS(=O)(=O)N1CCC(c2c[nH]c3c(C(N)=O)cc(-c4csc(CN(C)C)c4)cc23)CC1 [Example 111, 5-{5-[(dimethylamino)methyl]-3-thienyl}-3-[1-(ethylsulfonyl)-4-piperidinyl]-1H-indole-7-carboxamide trifluoroacetate] | ≤ 10 | ≤ 1.5 | – |
| CCCCCNCc1ccc(-c2cc(C(N)=O)c3[nH]cc(C4CCN(S(=O)(=O)CC)CC4)c3c2)s1 [Example 184, 3-[1-(ethylsulfonyl)-4-piperidinyl]-5-{5-[(pentylamino)methyl]-2-thienyl}-1H-indole-7-carboxamide] | ≤ 10 | – | 0 to 60 |
| CCS(=O)(=O)N1CCC(c2c[nH]c3c(C(N)=O)cc(-c4csc([C@H](C)N5CCCC5)c4)cc23)CC1 [Example 212, 3-[1-(ethylsulfonyl)-4-piperidinyl]-5-{5-[(1S)-1-(1-pyrrolidinyl)ethyl]-3-thienyl}-1H-indole-7-carboxamide] | ≤ 10 | ≤ 1.5 | – |
| CCS(=O)(=O)N1CCC(c2c[nH]c3c(C(N)=O)cc(-c4cccc(CN[C@H](C)C(C)C)c4)cc23)CC1 [Example 162, 5-[3-({[(1R)-1,2-dimethylpropyl]amino}methyl)phenyl]-3-[1-(ethylsulfonyl)-4-piperidinyl]-1H-indole-7-carboxamide trifluoroacetate] | ≤ 10 | ≤ 1.5 | – |
| CCCCCCNCc1ccc(-c2cc(C(N)=O)c3[nH]cc(C4CCN(S(=O)(=O)CC)CC4)c3c2)s1 [Example 201, 3-[1-(ethylsulfonyl)-4-piperidinyl]-5-{5-[(hexylamino)methyl]-2-thienyl}-1H-indole-7-carboxamide] | ≤ 10 | > 1 | – |
| CCS(=O)(=O)N1CCC(c2c[nH]c3c(C(N)=O)cc(-c4csc(CNCC5CCCC5)c4)cc23)CC1 [Example 112, 5-(5-{[(cyclopentylmethyl)amino]methyl}-3-thienyl)-3-[1-(ethylsulfonyl)-4-piperidinyl]-1H-indole-7-carboxamide trifluoroacetate] | ≤ 10 | ≤ 1.5 | – |
| CCNCCc1ccc(-c2cc(C(N)=O)c3[nH]cc(C4CCN(S(=O)(=O)CC)CC4)c3c2)cc1 [Example 127, 5-{4-[2-(ethylamino)ethyl]phenyl}-3-[1-(ethylsulfonyl)-4-piperidinyl]-1H-indole-7-carboxamide] | ≤ 10 | ≤ 1.5 | – |
